Reference: the OligoGym collection
Oligonucleotides are written 5' to 3', each unit as a sugar letter and its base; * is a phosphorothioate linkage, no mark a phosphodiester; rarer units and linkages stand in square brackets, end groups in braces. Plain capitals give the bases only. d = 2'-deoxy (DNA); r = 2'-OH (RNA)

biological target: UBE2C; assay: reporter assay of Huesken 2005; conditions: siRNA
Further: test concentration or dose not given here.

Compared with “sense rArGrUrGrGrUrCrUrGrCrCrCrUrGrUrArUrGrAdTdT / antisense rUrCrArUrArCrArGrGrGrCrArGrArCrCrArCrUdTdT”, “sense rCrUrGrArGrGrUrArUrArArGrCrUrCrUrCrGrCdTdT / antisense rGrCrGrArGrArGrCrUrUrArUrArCrCrUrCrArGdGdT” is higher in normalised inhibition (eCFP-eYFP dual reporter): 61.1% for the first, 75.8% for the second.

Going from “sense rArArGrArCrCrUrGrArGrGrUrArUrArArGrCrUdTdT / antisense rArGrCrUrUrArUrArCrCrUrCrArGrGrUrCrUrUdCdA” to “sense rArCrArArUrGrCrGrCrCrCrArCrArGrUrGrArAdTdT / antisense rUrUrCrArCrUrGrUrGrGrGrCrGrCrArUrUrGrUdAdA”, the normalised inhibition (eCFP-eYFP dual reporter) rises from 46.4% to 93.7%.

First: sense rCrArGrUrArUrArUrGrArArGrArCrCrUrGrArGdTdT / antisense rCrUrCrArGrGrUrCrUrUrCrArUrArUrArCrUrGdTdT
Second: sense rArGrUrArUrArUrGrArArGrArCrCrUrGrArGrGdTdT / antisense rCrCrUrCrArGrGrUrCrUrUrCrArUrArUrArCrUdGdT
The normalised inhibition (eCFP-eYFP dual reporter) of the first is higher: 82.2% for the first, 77.2% for the second.

Compared with “sense rCrCrUrGrUrArUrGrArUrGrUrCrArGrGrArCrCdTdT / antisense rGrGrUrCrCrUrGrArCrArUrCrArUrArCrArGrGdGdC”, “sense rUrCrUrArGrGrArGrArArCrCrCrArArCrArUrUdTdT / antisense rArArUrGrUrUrGrGrGrUrUrCrUrCrCrUrArGrAdAdG” is higher in normalised inhibition (eCFP-eYFP dual reporter): 42% for the first, 88.8% for the second.

First: sense rGrArArGrGrArArArArGrUrGrGrUrCrUrGrCrCdTdT / antisense rGrGrCrArGrArCrCrArCrUrUrUrUrCrCrUrUrCdAdG
Second: sense rCrArUrCrCrArGrArGrCrCrUrUrCrUrArGrGrAdTdT / antisense rUrCrCrUrArGrArArGrGrCrUrCrUrGrGrArUrGdGdA
The normalised inhibition (eCFP-eYFP dual reporter) of the first is lower: 63.3% for the first, 78.6% for the second.

Compared with “sense rUrGrArArCrArCrArCrArUrGrCrUrGrCrCrGrAdTdT / antisense rUrCrGrGrCrArGrCrArUrGrUrGrUrGrUrUrCrAdAdG”, “sense rArCrCrCrArGrGrGrUrArArCrArUrArUrGrCrCdTdT / antisense rGrGrCrArUrArUrGrUrUrArCrCrCrUrGrGrGrUdGdT” is lower in normalised inhibition (eCFP-eYFP dual reporter): 86.5% for the first, 39.6% for the second.

First: sense rArUrGrCrUrGrCrCrGrArGrCrUrCrUrGrGrArAdTdT / antisense rUrUrCrCrArGrArGrCrUrCrGrGrCrArGrCrArUdGdT
Second: sense rArCrCrArUrCrCrArUrGrGrArGrCrArGrCrUrGdTdT / antisense rCrArGrCrUrGrCrUrCrCrArUrGrGrArUrGrGrUdCdC
The normalised inhibition (eCFP-eYFP dual reporter) of the first is higher: 84.5% for the first, 62.1% for the second.

Compared with “sense rCrArCrCrCrCrArArCrGrUrGrGrArCrArCrCrCdTdT / antisense rGrGrGrUrGrUrCrCrArCrGrUrUrGrGrGrGrUrGdAdT”, “sense rUrArUrGrArUrGrUrCrArGrGrArCrCrArUrUrCdTdT / antisense rGrArArUrGrGrUrCrCrUrGrArCrArUrCrArUrAdCdA” is higher in normalised inhibition (eCFP-eYFP dual reporter): 11.6% for the first, 32.1% for the second.

Compared with “sense rGrCrCrUrGrGrArCrArUrCrCrUrGrArArGrGrAdTdT / antisense rUrCrCrUrUrCrArGrGrArUrGrUrCrCrArGrGrCdAdT”, “sense rArCrGrUrGrGrArCrArCrCrCrArGrGrGrUrArAdTdT / antisense rUrUrArCrCrCrUrGrGrGrUrGrUrCrCrArCrGrUdTdG” is lower in normalised inhibition (eCFP-eYFP dual reporter): 85.8% for the first, 83% for the second.

First: sense rGrGrUrArUrArArGrCrUrCrUrCrGrCrUrArGrAdTdT / antisense rUrCrUrArGrCrGrArGrArGrCrUrUrArUrArCrCdTdC
Second: sense rArGrUrUrCrCrUrCrArCrGrCrCrCrUrGrCrUrAdTdT / antisense rUrArGrCrArGrGrGrCrGrUrGrArGrGrArArCrUdTdC
The normalised inhibition (eCFP-eYFP dual reporter) of the first is higher: 91.3% for the first, 84.4% for the second.

Going from “sense rArCrArUrCrCrUrGrArArGrGrArArArArGrUrGdTdT / antisense rCrArCrUrUrUrUrCrCrUrUrCrArGrGrArUrGrUdCdC” to “sense rGrCrUrArGrArGrUrUrCrCrCrCrArGrUrGrGrCdTdT / antisense rGrCrCrArCrUrGrGrGrGrArArCrUrCrUrArGrCdGdA”, the normalised inhibition (eCFP-eYFP dual reporter) rises from 46.2% to 69%.

First: sense rGrArUrGrUrCrArGrGrArCrCrArUrUrCrUrGrCdTdT / antisense rGrCrArGrArArUrGrGrUrCrCrUrGrArCrArUrCdAdT
Second: sense rGrCrCrCrUrGrCrUrArUrCrArCrCrCrCrArArCdTdT / antisense rGrUrUrGrGrGrGrUrGrArUrArGrCrArGrGrGrCdGdT
The normalised inhibition (eCFP-eYFP dual reporter) of the first is lower: 48.8% for the first, 63.4% for the second.

First: sense rUrGrGrUrCrUrGrCrCrCrUrGrUrArUrGrArUrGdTdT / antisense rCrArUrCrArUrArCrArGrGrGrCrArGrArCrCrAdCdT
Second: sense rCrUrArUrCrArCrCrCrCrArArCrGrUrGrGrArCdTdT / antisense rGrUrCrCrArCrGrUrUrGrGrGrGrUrGrArUrArGdCdA
The normalised inhibition (eCFP-eYFP dual reporter) of the first is lower: 28.6% for the first, 77.2% for the second.

Compared with “sense rArCrArUrUrGrArUrArGrUrCrCrCrUrUrGrArAdTdT / antisense rUrUrCrArArGrGrGrArCrUrArUrCrArArUrGrUdTdG”, “sense rArGrGrUrArUrArArGrCrUrCrUrCrGrCrUrArGdTdT / antisense rCrUrArGrCrGrArGrArGrCrUrUrArUrArCrCrUdCdA” is higher in normalised inhibition (eCFP-eYFP dual reporter): 90.8% for the first, 92.4% for the second.

Going from “sense rCrCrArCrArGrUrGrArArGrUrUrCrCrUrCrArCdTdT / antisense rGrUrGrArGrGrArArCrUrUrCrArCrUrGrUrGrGdGdC” to “sense rGrArGrCrArGrCrUrGrGrArArCrArGrUrArUrAdTdT / antisense rUrArUrArCrUrGrUrUrCrCrArGrCrUrGrCrUrCdCdA”, the normalised inhibition (eCFP-eYFP dual reporter) rises from 74.3% to 85.2%.

First: sense rUrGrGrCrUrArCrCrCrUrUrArCrArArUrGrCrGdTdT / antisense rCrGrCrArUrUrGrUrArArGrGrGrUrArGrCrCrAdCdT
Second: sense rGrCrUrArUrCrArCrCrCrCrArArCrGrUrGrGrAdTdT / antisense rUrCrCrArCrGrUrUrGrGrGrGrUrGrArUrArGrCdAdG
The normalised inhibition (eCFP-eYFP dual reporter) of the first is lower: 61.3% for the first, 89.4% for the second.

Going from “sense rCrArGrArGrCrCrUrUrCrUrArGrGrArGrArArCdTdT / antisense rGrUrUrCrUrCrCrUrArGrArArGrGrCrUrCrUrGdGdA” to “sense rGrArArGrUrUrCrCrUrCrArCrGrCrCrCrUrGrCdTdT / antisense rGrCrArGrGrGrCrGrUrGrArGrGrArArCrUrUrCdAdC”, the normalised inhibition (eCFP-eYFP dual reporter) falls from 75.5% to 40.9%.

First: sense rArGrCrUrGrGrArArCrArGrUrArUrArUrGrArAdTdT / antisense rUrUrCrArUrArUrArCrUrGrUrUrCrCrArGrCrUdGdC
Second: sense rCrCrCrUrGrCrUrArUrCrArCrCrCrCrArArCrGdTdT / antisense rCrGrUrUrGrGrGrGrUrGrArUrArGrCrArGrGrGdCdG
The normalised inhibition (eCFP-eYFP dual reporter) of the first is higher: 97.5% for the first, 53.1% for the second.

Substance “sense rGrArArCrArGrUrArUrArUrGrArArGrArCrCrUdTdT / antisense rArGrGrUrCrUrUrCrArUrArUrArCrUrGrUrUrCdCdA” has a normalised inhibition (eCFP-eYFP dual reporter) of 86.9%.
